Test results reported in patent US20210261528A1, “SALTS OF (S)-(5-CYCLOBUTOXY-2-METHYL-6-(1-(PIPERIDIN-4-YL)-1H-PYRAZOL-4-YL)-3,4-DIHYDROQUINOLIN-1(2H)-YL)(CYCLOPROPYL)METHANONE AND SOLID FORMS THEREOF” (FORMA Therapeutics, Inc., priority 2018, published 2021).
Several values for one entry are separate records, joined by “and”; a condition that tells them apart may be missing. Identical values can stand only once. Entries after “also recorded” stand apart in the source; their conditions may differ.

What was measured:
Assay type in all cases: physicochemical
[1] = Chemical stability by HPLC-UV at 275 nm and 254 nm (Table 9)
Procedure: High Pressure Liquid Chromatography (HPLC) data were obtained according to Tables 6 or 7, below:
A standard stock was dissolved with diluent in a volumetric flask (e.g., 25 mg in 25 mL). This stock was vortexed and sonicated 10 sec to dissolve, and then diluted 1:10, 1:4, and 1:2 either in volumetric flasks or in HPLC vials to generate a standard curve. […] Where appropriate, a blank was created to accurately replicate the matrix of the analytical sample, and peaks appearing in the blank were identified before integration and quantification using Chemstation software.
The chemical stability of Succinate Form A was determined using HPLC-UV at 275 nm and 254 nm.
The chemical stability of Form G was determined using HPLC-UV at 275 nm and 254 nm.

[2] = Hygroscopicity evaluation by Dynamic Vapor Sorption (DVS) with XRPD of the solids after DVS; details: for behaviour at high humidity (DVS): >60% RH; for behaviour at high humidity (DVS) / hygroscopicity (DVS): 25° C.; for solid form after the DVS test: XRPD of solids after DVS; for hygroscopicity (DVS): absorption up to 80% RH
Procedure: Dynamic Vapor Sorption (DVS) was obtained using a Surface Measurement Systems (SMS) DVS Intrinsic. The relative humidity at 25° C. were calibrated against deliquescence point of LiCl, Mg (NO3)2 and KCl.

[3] = Slurry turnover of Compound 2 Form B, Form I and Form G (Example 11, Table 25); details: 24 hours
Procedure: To further study the form identity of Form B and Form I, slurry turnover experiments were performed in two solvents with the addition of Form G. Form B was dissolved in IPAc and MTBE respectively to get saturated solutions. Similar mass of Form B, G and I were weighed into a 2-mL vial, upon which the corresponding saturated solution was added to give the slurry, which was stirred at RT or 50° C. After slurry for 24 hours, the solids obtained were analyzed by XRPD.

[4] = Slurry competition between Compound 2 Form G and Form O for stability evaluation (Example 10, Table 24); details: 24 hours
Procedure: The slurry competition experiments between the two anhydrates, Form G and Form O, were performed in two solvents, IPAc and MTBE, at RT and 50° C. for stability evaluation. Form O was dissolved in IPAc and MTBE respectively to get saturated solutions. Then, similar masses of Form G and Form O were added into a 2-mL vial, upon which the corresponding saturated solution was added to give the slurry, which was stirred at RT or 50° C. for 24 hours. The solids collected were analyzed by XRPD to confirm the form change.

[5] = Critical aw between Compound 2 Form G and Form I, slurry turnover in H2O/IPAc (Example 12, Table 26); details: for Final Form: 24 hrs
Procedure: To investigate the critical aw between hydrated Form I and the stable anhydrate, Form G, slurry turnover of Form I and Form G was conducted in a co-solvent system (H2O/IPAc) with different aw at RT and 50° C. Similar mass of Form G and Form I were added into a 2-mL vial, followed by adding solvent and stirring at RT or 50° C. for 24 hrs. The solids obtained were analyzed by XRPD to confirm the form change.

[6] = Aqueous solubility estimation of Compound 2 Form G, Form O and Form I at RT (Example 13, Table 27); details: for Observation Initial / Observation 2 hrs: about 3 mg in 50 μL water; for Observation 2 hrs: stirred 2 hrs
Procedure: Aqueous solubility tests at RT were conducted on the two potential anhydrates, Form G and O, and the hydrated Form I. About 3 mg of each form was weighed into a 2-mL vial. […] of water was added and stirred thoroughly at RT with the speed of 800 RPM.

With `C[C@H]1CCc2c(ccc(-c3cnn(C4CCNCC4)c3)c2OC2CCC2)N1C(=O)C1CC1.O=C(O)CCC(=O)O` [A] the “% Claim (275 nm)” value ([1]; 25° C./60% RH) was 98.3% and 99.8%, the “% Purity (275 nm)” value ([1]; 25° C./60% RH) was 98.64% and 98.78% and the “% Claim (275 nm)” value ([1]; initial) was 95.2%. The “% Purity (275 nm)” value ([1]; initial) was 98.73%.

With `C[C@H]1CCc2c(ccc(-c3cnn(C4CCNCC4)c3)c2OC2CCC2)N1C(=O)C1CC1.O=C(O)CCCCC(=O)O` [Adipate Form A] the “behaviour at high humidity (DVS)” value [2] was “deliquescent” and the “solid form after the DVS test” value [2] was “amorphous or jelly solids”.

In the case of `C[C@H]1CCc2c(ccc(-c3cnn(C4CCNCC4)c3)c2OC2CCC2)N1C(=O)C1CC1.O=C(O)CCC(=O)O` [Form B, (S)-(5-cyclobutoxy-2-methyl-6-(1-(piperidin-4-yl)-1H-pyrazol-4-yl)-3,4-dihydroquinolin-1(2H)-yl)(cyclopropyl)methanone succinate], the “solid form after the DVS test” value ([2]; succinate) is reported as “amorphous” and the “hygroscopicity (DVS)” value ([2]; succinate) is reported as “highly hygroscopic; also recorded: high hygroscopicity”.

With `C[C@H]1CCc2c(ccc(-c3cnn(C4CCNCC4)c3)c2OC2CCC2)N1C(=O)C1CC1.O=C(O)CCC(=O)O` [Form B, G and I] the “Results (solid form after slurry turnover, XRPD)” value ([3]; IPAc, 50° C.) was “Form G”, the “Results (solid form after slurry turnover, XRPD)” value ([3]; IPAc, RT) was “Form G” and the “Results (solid form after slurry turnover, XRPD)” value ([3]; MTBE, 50° C.) was “Form G”. For the same compound, the “Results (solid form after slurry turnover, XRPD)” value ([3]; MTBE, RT) was “Form G”.

In the case of `C[C@H]1CCc2c(ccc(-c3cnn(C4CCNCC4)c3)c2OC2CCC2)N1C(=O)C1CC1.O=C(O)CCC(=O)O` [Form G and Form O], the “Results (solid form after slurry competition, XRPD)” value ([4]; IPAc, 50° C.) is reported as “Form G”, the “Results (solid form after slurry competition, XRPD)” value ([4]; IPAc, RT) is reported as “Form G” and the “Results (solid form after slurry competition, XRPD)” value ([4]; MTBE, 50° C.) is reported as “Form G”. For the same compound, the “Results (solid form after slurry competition, XRPD)” value ([4]; MTBE, RT) was “Form G”.

For `C[C@H]1CCc2c(ccc(-c3cnn(C4CCNCC4)c3)c2OC2CCC2)N1C(=O)C1CC1.O=C(O)CCC(=O)O` [Form I and Form G], the “Final Form” value ([5]; H2O/IPAc (2.8:997.2, aw 0.18), 50° C.) was “Form G”, the “Final Form” value ([5]; H2O/IPAc (2.8:997.2, aw 0.20), RT) was “Form G” and the “Final Form” value ([5]; H2O/IPAc (6:994, aw 0.36), 50° C.) was “Form G”. The “Final Form” value ([5]; H2O/IPAc (6:994, aw 0.40), RT) was “Form G”, the “Final Form” value ([5]; H2O/IPAc (10:990, aw 0.55), 50° C.) was “Form G” and the “Final Form” value ([5]; H2O/IPAc (10:990, aw 0.59), RT) was “Form G”. For the same compound, the “Final Form” value ([5]; IPAc, 50° C.) was “Form G” and the “Final Form” value ([5]; IPAc, RT) was “Form G”.

In the case of `C[C@H]1CCc2c(ccc(-c3cnn(C4CCNCC4)c3)c2OC2CCC2)N1C(=O)C1CC1.O=C(O)CCC(=O)O` [Form I, (S)-(5-cyclobutoxy-2-methyl-6-(1-(piperidin-4-yl)-1H-pyrazol-4-yl)-3,4-dihydroquinolin-1(2H)-yl)(cyclopropyl)methanone succinate], the “stability under ambient conditions compared to Form G” value ([5]; different aw) is reported as “did not appear to have any stability”, the “Observation Initial” value [6] is reported as “Little solid” and the “Observation 2 hrs” value [6] is reported as “Clear”. For the same compound, the “solid form after the DVS test” value ([2]; succinate) was “amorphous”, the “hygroscopicity (DVS)” value ([2]; succinate) was “high hygroscopicity” and the “weight change before 60% RH (DVS)” value ([2]; before 60% RH) was “minor weight change”.

With `C[C@H]1CCc2c(ccc(-c3cnn(C4CCNCC4)c3)c2OC2CCC2)N1C(=O)C1CC1.O=C(O)CCC(=O)O` [Form M, (S)-(5-cyclobutoxy-2-methyl-6-(1-(piperidin-4-yl)-1H-pyrazol-4-yl)-3,4-dihydroquinolin-1(2H)-yl)(cyclopropyl)methanone succinate] the “solid form after the DVS test” value ([2]; succinate) was “amorphous” and the “hygroscopicity (DVS)” value ([2]; succinate) was “highly hygroscopic; also recorded: high hygroscopicity”.

With `C[C@H]1CCc2c(ccc(-c3cnn(C4CCNCC4)c3)c2OC2CCC2)N1C(=O)C1CC1.O=C(O)CCC(=O)O` [Form O, (S)-(5-cyclobutoxy-2-methyl-6-(1-(piperidin-4-yl)-1H-pyrazol-4-yl)-3,4-dihydroquinolin-1(2H)-yl)(cyclopropyl)methanone succinate] the “Observation Initial” value [6] was “Little solid”, the “Observation 2 hrs” value [6] was “Clear” and the solubility at 2 h ([6]; thermodynamic from solid, water, stirring 2 hrs at 800 RPM) was > 60 mg/mL. For the same compound, the “solid form after the DVS test” value ([2]; succinate) was “amorphous” and the “hygroscopicity (DVS)” value ([2]; succinate) was “highly hygroscopic; also recorded: high hygroscopicity”.

With `C[C@H]1CCc2c(ccc(-c3cnn(C4CCNCC4)c3)c2OC2CCC2)N1C(=O)C1CC1.O=C(O)/C=C/C(=O)O` [Fumarate Form A] the “behaviour at high humidity (DVS)” value [2] was “deliquescent” and the “solid form after the DVS test” value [2] was “amorphous or jelly solids”.

For `C[C@H]1CCc2c(ccc(-c3cnn(C4CCNCC4)c3)c2OC2CCC2)N1C(=O)C1CC1.O=C(O)/C=C/C(=O)O` [Fumarate Form B], the “behaviour at high humidity (DVS)” value [2] was “deliquescent” and the “solid form after the DVS test” value [2] was “amorphous or jelly solids”.

With `C[C@H]1CCc2c(ccc(-c3cnn(C4CCNCC4)c3)c2OC2CCC2)N1C(=O)C1CC1.O=C(O)/C=C/C(=O)O` [Fumarate Form C] the “behaviour at high humidity (DVS)” value [2] was “deliquescent” and the “solid form after the DVS test” value [2] was “amorphous or jelly solids”.

With `C[C@H]1CCc2c(ccc(-c3cnn(C4CCNCC4)c3)c2OC2CCC2)N1C(=O)C1CC1.O=C(O)CCC(=O)O` [G] the “% Claim (275 nm)” value ([1]; 25° C./60% RH) was 104% and 106% and 107% and 103%, the “% Purity (275 nm)” value ([1]; 25° C./60% RH) was 98.84% and 98.86% and the “% Claim (275 nm)” value ([1]; 40° C./75% RH) was 106% and 96.3% and 101%. For the same compound, the “% Purity (275 nm)” value ([1]; 40° C./75% RH) was 98.51% and 98.33% and 97.37% and 96.72%, the “% Claim (275 nm)” value ([1]; 50° C.) was 100% and 101% and 104% and the “% Purity (275 nm)” value ([1]; 50° C.) was 98.69% and 97.37% and 97.79%. The “% Claim (275 nm)” value ([1]; 50° C.*) was 98.1%, the “% Purity (275 nm)” value ([1]; 50° C.*) was 94.24% and the “% Claim (275 nm)” value ([1]; Post DVS) was 73.5%. The “% Purity (275 nm)” value ([1]; Post DVS) was 98.91%, the “% Claim (275 nm)” value ([1]; RT) was 106% and 103% and 107% and the “% Purity (275 nm)” value ([1]; RT) was 98.85% and 98.88% and 98.82% and 98.86%. The “% Claim (275 nm)” value ([1]; initial) was 102% and the “% Purity (275 nm)” value ([1]; initial) was 98.84%.
